Consider 23 molecules from ChEMBL document CHEMBL1671789, “Evaluation of quinazoline analogues as glucocerebrosidase inhibitors with chaperone activity” (J Med Chem, 2011).

Calls of active or inactive are those of the source. No rule for the calls is given here.
Also: test concentration or dose not given here.

The nature of the first assay: Inhibition of alpha-glucosidase.
Regarding `O=S(=O)(c1cccs1)N1CCN(c2nc(-c3cccs3)nc3ccccc23)CC1`, the outcome was inactive.

Take `Cc1ccc(S(=O)(=O)N2CCN(c3nc(-c4ccc(CN5CCOCC5)s4)nc4ccccc34)CC2)cc1`: the result was inactive.

In the case of `CS(=O)(=O)N1CCN(c2nc(-c3cccs3)nc3ccccc23)CC1`, the outcome was inactive.

Regarding `Cc1ccc(S(=O)(=O)N2CCN(c3nc(-c4ccc(C)s4)nc4ccccc34)CC2)cc1`, the outcome was inactive.

As for `CCOc1ccc(S(=O)(=O)N2CCN(c3nc(-c4ccccc4)nc4ccccc34)CC2)cc1`, the result was inactive.

Turning to `Cc1ccc(S(=O)(=O)N(C)CCN(C)c2nc(-c3cccs3)nc3ccccc23)cc1`, the outcome was inactive.

As for `N#Cc1cccc(S(=O)(=O)N2CCN(c3nc(-c4cccs4)nc4ccccc34)CC2)c1`, the outcome was inactive.

With `O=S(=O)(c1cccc(C(F)(F)F)c1)N1CCN(c2nc(-c3ccccc3)nc3ccccc23)CC1`, the outcome was inactive.

For `O=S(=O)(c1cccc(C(F)(F)F)c1)N1CCN(c2nc(-c3cccs3)nc3ccccc23)CC1`, the outcome was inactive.

Consider `O=S(=O)(c1cccc2ccccc12)N1CCN(c2nc(-c3cccs3)nc3ccccc23)CC1`, for which the outcome was inactive.

With `O=S(=O)(NCCNc1nc(-c2ccco2)nc2ccccc12)c1ccccc1`, the result was inactive.

Turning to `O=S(=O)(c1cc(Cl)cc(Cl)c1)N1CCN(c2nc(-c3cccs3)nc3ccccc23)CC1`, the result was inactive.

In the case of `COC(=O)c1nc(N2CCN(S(=O)(=O)c3ccc(C)cc3)CC2)c2ccccc2n1`, the outcome was inactive.

`Cc1ccc(S(=O)(=O)N2CCN(c3nc(-c4cccs4)nc(C)c3C)CC2)cc1`: the result was inactive.

As for `Cc1ccc(S(=O)(=O)N2CCN(c3ncnc4ccccc34)CC2)cc1`, the outcome was inactive.

For the molecule `CC(=O)c1nc(N2CCN(S(=O)(=O)c3ccc(C)cc3)CC2)c2ccccc2n1`, the result was inactive.

With `O=S(=O)(c1ccccc1F)N1CCN(c2nc(-c3cccs3)nc3ccccc23)CC1`, the result was inactive.

Turning to `O=S(=O)(/C=C/c1ccccc1)N1CCN(c2nc(-c3cccnc3)nc3ccccc23)CC1`, the result was inactive.

With `CN(CCN(C)c1nc(-c2cccs2)nc2ccccc12)C(=O)OC(C)(C)C`, the outcome was inactive.

As to `Cc1ccc(S(=O)(=O)N2CCN(c3nc(-c4ccncc4)nc4ccccc34)CC2)cc1`, the result was inactive.

Turning to `O=C(c1ccc2c(c1)OCCO2)N1CCN(c2nc(-c3cccs3)nc3ccccc23)CC1`, the result was inactive.

Turning to `COc1ccc(S(=O)(=O)N2CCN(c3nc(-c4cccs4)nc4ccccc34)CC2)cc1OC`, the outcome was inactive.

Turning to `O=S(=O)(c1ccccc1C(F)(F)F)N1CCN(c2nc(-c3ccccc3)nc3ccccc23)CC1`, the result was inactive.

The next assay in a line: Inhibition of alpha-galactosidase.
On to `O=S(=O)(c1cccs1)N1CCN(c2nc(-c3cccs3)nc3ccccc23)CC1`, for which the outcome was inactive.

In the case of `Cc1ccc(S(=O)(=O)N2CCN(c3nc(-c4ccc(CN5CCOCC5)s4)nc4ccccc34)CC2)cc1`, the result was inactive.

Consider `CS(=O)(=O)N1CCN(c2nc(-c3cccs3)nc3ccccc23)CC1`, for which the outcome was inactive.

As to `Cc1ccc(S(=O)(=O)N2CCN(c3nc(-c4ccc(C)s4)nc4ccccc34)CC2)cc1`, the result was inactive.

`CCOc1ccc(S(=O)(=O)N2CCN(c3nc(-c4ccccc4)nc4ccccc34)CC2)cc1`: the result was inactive.

Take `Cc1ccc(S(=O)(=O)N(C)CCN(C)c2nc(-c3cccs3)nc3ccccc23)cc1`: the result was inactive.

For `N#Cc1cccc(S(=O)(=O)N2CCN(c3nc(-c4cccs4)nc4ccccc34)CC2)c1`, the result was inactive.

For `O=S(=O)(c1cccc(C(F)(F)F)c1)N1CCN(c2nc(-c3ccccc3)nc3ccccc23)CC1`, the outcome was inactive.

As to `O=S(=O)(c1cccc(C(F)(F)F)c1)N1CCN(c2nc(-c3cccs3)nc3ccccc23)CC1`, the outcome was inactive.

`O=S(=O)(c1cccc2ccccc12)N1CCN(c2nc(-c3cccs3)nc3ccccc23)CC1`: the result was inactive.

In the case of `O=S(=O)(NCCNc1nc(-c2ccco2)nc2ccccc12)c1ccccc1`, the outcome was inactive.

As for `O=S(=O)(c1cc(Cl)cc(Cl)c1)N1CCN(c2nc(-c3cccs3)nc3ccccc23)CC1`, the result was inactive.

Take `COC(=O)c1nc(N2CCN(S(=O)(=O)c3ccc(C)cc3)CC2)c2ccccc2n1`: the outcome was inactive.

With `Cc1ccc(S(=O)(=O)N2CCN(c3nc(-c4cccs4)nc(C)c3C)CC2)cc1`, the result was inactive.

With `Cc1ccc(S(=O)(=O)N2CCN(c3ncnc4ccccc34)CC2)cc1`, the outcome was inactive.

In the case of `CC(=O)c1nc(N2CCN(S(=O)(=O)c3ccc(C)cc3)CC2)c2ccccc2n1`, the result was inactive.

Take `O=S(=O)(c1ccccc1F)N1CCN(c2nc(-c3cccs3)nc3ccccc23)CC1`: the outcome was inactive.

In the case of `O=S(=O)(/C=C/c1ccccc1)N1CCN(c2nc(-c3cccnc3)nc3ccccc23)CC1`, the outcome was inactive.

Regarding `CN(CCN(C)c1nc(-c2cccs2)nc2ccccc12)C(=O)OC(C)(C)C`, the result was inactive.

In the case of `Cc1ccc(S(=O)(=O)N2CCN(c3nc(-c4ccncc4)nc4ccccc34)CC2)cc1`, the result was inactive.

In the case of `O=C(c1ccc2c(c1)OCCO2)N1CCN(c2nc(-c3cccs3)nc3ccccc23)CC1`, the outcome was inactive.

Turning to `COc1ccc(S(=O)(=O)N2CCN(c3nc(-c4cccs4)nc4ccccc34)CC2)cc1OC`, the result was inactive.

For the molecule `O=S(=O)(c1ccccc1C(F)(F)F)N1CCN(c2nc(-c3ccccc3)nc3ccccc23)CC1`, the result was inactive.
